Reference: ChEMBL document CHEMBL5291721, “A preclinical secondary pharmacology resource illuminates target-adverse drug reaction associations of marketed drugs” (Nat Commun, 2023)

Tests used:
[1] = target: T1, Alpha-2C adrenergic receptor (Homo sapiens, UniProt P18825); assay type: functional
T1 sequence (P18825 whole entry): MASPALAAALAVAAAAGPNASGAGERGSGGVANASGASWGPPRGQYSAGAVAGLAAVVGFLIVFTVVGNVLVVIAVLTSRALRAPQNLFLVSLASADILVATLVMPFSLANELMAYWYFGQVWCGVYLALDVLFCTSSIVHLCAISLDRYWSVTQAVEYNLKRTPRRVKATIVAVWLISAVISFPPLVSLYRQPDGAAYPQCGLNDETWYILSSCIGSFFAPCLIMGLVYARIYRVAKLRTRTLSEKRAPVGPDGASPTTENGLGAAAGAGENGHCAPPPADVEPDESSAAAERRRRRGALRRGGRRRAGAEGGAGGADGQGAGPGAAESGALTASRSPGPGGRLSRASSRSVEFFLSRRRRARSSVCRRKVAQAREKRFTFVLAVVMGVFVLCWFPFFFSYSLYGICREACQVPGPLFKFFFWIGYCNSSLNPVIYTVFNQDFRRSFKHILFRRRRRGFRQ

[2] = target: T2, Muscarinic acetylcholine receptor M1 (Homo sapiens, UniProt P11229); assay type: functional
T2 sequence (P11229 whole entry): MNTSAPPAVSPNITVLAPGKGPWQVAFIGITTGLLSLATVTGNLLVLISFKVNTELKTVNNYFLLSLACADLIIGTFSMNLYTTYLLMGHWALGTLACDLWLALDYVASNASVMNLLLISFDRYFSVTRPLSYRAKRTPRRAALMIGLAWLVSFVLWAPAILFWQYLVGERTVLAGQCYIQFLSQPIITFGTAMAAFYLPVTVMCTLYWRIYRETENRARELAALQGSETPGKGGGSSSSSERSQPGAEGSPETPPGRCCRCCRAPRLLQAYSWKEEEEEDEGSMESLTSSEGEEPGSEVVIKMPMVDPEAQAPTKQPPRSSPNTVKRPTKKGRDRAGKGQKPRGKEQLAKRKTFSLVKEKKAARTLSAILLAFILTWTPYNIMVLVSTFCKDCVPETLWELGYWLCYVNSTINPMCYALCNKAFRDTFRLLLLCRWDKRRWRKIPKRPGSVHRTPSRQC

[3] = target: Gamma-aminobutyric acid receptor subunit alpha-1 (Rattus norvegicus, UniProt P62813)
Melanocortin receptor 3 = Melanocortin receptor 3 (Homo sapiens, UniProt P41968)
[4] = target: Sodium-dependent dopamine transporter (Homo sapiens, UniProt Q01959)
[5] = target: T3, 5-hydroxytryptamine receptor 1A (Homo sapiens, UniProt P08908); assay type: functional, cell-based
T3 sequence (P08908 whole entry): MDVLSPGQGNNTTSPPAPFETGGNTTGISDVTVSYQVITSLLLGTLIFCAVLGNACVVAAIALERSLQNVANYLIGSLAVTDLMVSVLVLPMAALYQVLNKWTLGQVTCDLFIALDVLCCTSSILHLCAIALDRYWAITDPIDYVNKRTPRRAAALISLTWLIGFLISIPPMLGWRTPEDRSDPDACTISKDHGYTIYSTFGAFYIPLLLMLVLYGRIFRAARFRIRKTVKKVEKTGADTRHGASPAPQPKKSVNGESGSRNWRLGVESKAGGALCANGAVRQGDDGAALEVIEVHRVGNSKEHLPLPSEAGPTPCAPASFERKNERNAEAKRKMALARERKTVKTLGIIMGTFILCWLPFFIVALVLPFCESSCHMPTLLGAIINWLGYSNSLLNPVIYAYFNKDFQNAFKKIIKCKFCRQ

[6] = target: T4, 5-hydroxytryptamine receptor 2C (Homo sapiens, UniProt P28335)
T4 sequence (P28335 whole entry): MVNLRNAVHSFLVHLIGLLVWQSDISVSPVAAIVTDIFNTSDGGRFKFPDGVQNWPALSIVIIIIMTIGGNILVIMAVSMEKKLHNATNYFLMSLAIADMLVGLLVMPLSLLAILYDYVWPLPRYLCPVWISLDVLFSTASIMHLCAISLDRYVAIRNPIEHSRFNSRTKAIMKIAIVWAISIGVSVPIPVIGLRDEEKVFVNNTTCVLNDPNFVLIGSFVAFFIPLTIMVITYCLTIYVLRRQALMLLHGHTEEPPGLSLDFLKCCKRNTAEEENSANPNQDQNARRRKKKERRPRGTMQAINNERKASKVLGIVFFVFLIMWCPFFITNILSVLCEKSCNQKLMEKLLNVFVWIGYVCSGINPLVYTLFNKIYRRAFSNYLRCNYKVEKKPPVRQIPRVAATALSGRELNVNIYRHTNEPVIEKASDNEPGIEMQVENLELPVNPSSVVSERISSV
Note: assay procedure not described here.

Gamma-aminobutyric acid receptor subunit alpha-1, sequence (P62813 whole entry): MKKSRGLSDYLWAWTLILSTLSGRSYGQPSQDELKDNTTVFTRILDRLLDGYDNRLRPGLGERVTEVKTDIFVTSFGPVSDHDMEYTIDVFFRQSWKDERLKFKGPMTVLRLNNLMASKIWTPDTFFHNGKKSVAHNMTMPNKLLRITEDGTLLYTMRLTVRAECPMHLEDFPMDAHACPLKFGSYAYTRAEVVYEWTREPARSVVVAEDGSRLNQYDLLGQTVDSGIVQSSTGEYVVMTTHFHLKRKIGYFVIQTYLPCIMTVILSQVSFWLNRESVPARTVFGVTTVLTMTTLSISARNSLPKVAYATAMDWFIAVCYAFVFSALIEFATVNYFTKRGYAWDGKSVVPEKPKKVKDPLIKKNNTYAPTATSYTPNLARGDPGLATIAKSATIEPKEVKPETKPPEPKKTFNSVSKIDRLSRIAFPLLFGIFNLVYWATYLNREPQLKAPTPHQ
Melanocortin receptor 3, sequence (P41968 whole entry): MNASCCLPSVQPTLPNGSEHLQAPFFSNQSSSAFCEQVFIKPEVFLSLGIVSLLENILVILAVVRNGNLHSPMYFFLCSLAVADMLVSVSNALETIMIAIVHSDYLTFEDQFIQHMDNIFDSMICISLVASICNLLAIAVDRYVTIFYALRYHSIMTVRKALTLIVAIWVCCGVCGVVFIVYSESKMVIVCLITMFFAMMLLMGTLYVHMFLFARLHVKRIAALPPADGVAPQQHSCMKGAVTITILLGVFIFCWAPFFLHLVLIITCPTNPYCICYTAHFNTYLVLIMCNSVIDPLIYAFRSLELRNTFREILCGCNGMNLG
Sodium-dependent dopamine transporter, sequence (Q01959 whole entry): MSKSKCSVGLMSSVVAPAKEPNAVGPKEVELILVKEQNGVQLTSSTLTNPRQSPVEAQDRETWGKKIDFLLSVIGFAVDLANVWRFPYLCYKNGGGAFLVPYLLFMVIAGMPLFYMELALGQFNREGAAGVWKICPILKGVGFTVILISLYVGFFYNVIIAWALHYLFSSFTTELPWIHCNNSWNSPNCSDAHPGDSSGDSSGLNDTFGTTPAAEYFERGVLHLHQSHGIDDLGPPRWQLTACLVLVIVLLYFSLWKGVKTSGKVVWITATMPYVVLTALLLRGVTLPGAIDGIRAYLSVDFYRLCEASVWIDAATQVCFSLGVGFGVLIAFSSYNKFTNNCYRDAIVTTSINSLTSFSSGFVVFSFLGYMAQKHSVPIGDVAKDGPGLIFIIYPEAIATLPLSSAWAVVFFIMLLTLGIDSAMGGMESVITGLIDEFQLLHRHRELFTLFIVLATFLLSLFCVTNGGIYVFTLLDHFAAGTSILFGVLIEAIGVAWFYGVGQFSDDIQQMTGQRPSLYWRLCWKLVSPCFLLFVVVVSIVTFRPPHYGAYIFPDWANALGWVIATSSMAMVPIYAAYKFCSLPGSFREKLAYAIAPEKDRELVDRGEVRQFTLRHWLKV

Structure (SMILES) | AC50 [1] [µM] | AC50 [2] [µM] | AC50 [3] [µM] | AC50 (Melanocortin receptor 3) [µM] | AC50 [4] [µM] | AC50 [5] [µM] | AC50 [6] [µM]
O=C(O)c1cccc(-c2noc(-c3ccccc3F)n2)c1 | > 10 | > 10 | > 30 | > 30 | > 30 |  | 
CO/N=C(\C(=O)N[C@@H]1C(=O)N2C(C(=O)OCOC(=O)C(C)(C)C)=C(C)CS[C@H]12)c1csc(N)n1 | > 30 | > 30 | > 30 |  |  | > 30 | > 30
Nc1ccc(C(=O)O)cc1 [AMINOBENZOIC ACID] |  |  | > 30 |  |  |  | 
NS(=O)(=O)c1cc(-c2nnn[nH]2)c(NCc2cccs2)cc1Cl [AZOSEMIDE] | > 30 | > 30 |  | > 30 | > 30 | > 30 | > 30
O=C(Cn1ccnc1[N+](=O)[O-])NCc1ccccc1 [BENZNIDAZOLE] | > 30 | > 30 | > 30 | > 30 | > 30 | > 30 | > 30
C[N+](C)(C)CC(=O)O [BETAINE] | > 30 | > 30 |  | > 30 | > 30 | > 30 | > 30
CCCC(=O)N1CCCN(c2nc(N)c3cc(OC)c(OC)cc3n2)CC1 [BUNAZOSIN] | 0.55 | > 30 |  | > 30 | > 30 | > 30 | > 30
CCCCN(CCCC)CCCOC(=O)c1ccc(N)cc1 [BUTACAINE] |  |  | > 30 |  |  |  | 
C[N+](C)(C)CCOC(N)=O [CARBAMOYLCHOLINE] | > 10 |  |  | > 10 | > 10 | 5.95 | > 30
N[C@@H](CSCC(=O)O)C(=O)O [CARBOCYSTEINE] | > 30 | > 30 |  | > 30 | > 30 | > 30 | > 30
NCc1ccccc1CC(=O)N[C@@H]1C(=O)N2C(C(=O)O)=C(CSc3nnnn3CC(=O)O)CS[C@H]12 [CEFORANIDE] |  |  | > 30 |  |  |  | 
COCC1=C(C(=O)OC(C)OC(=O)OC(C)C)N2C(=O)[C@@H](NC(=O)/C(=N\OC)c3csc(N)n3)[C@H]2SC1 (stereo partly specified) [CEFPODOXIME PROXETIL] | > 30 | > 30 | > 30 |  |  | > 30 | > 30
CC(C)(N)Cc1ccc(Cl)cc1 [CHLORPHENTERMINE] | > 10 | > 10 |  | > 30 | 7.59 | > 10 | > 30
NS(=O)(=O)c1cc2c(cc1Cl)NC(CC1CCCC1)NS2(=O)=O (stereo unspecified) [CYCLOPENTHIAZIDE] | > 30 | > 30 | > 30 |  |  | > 30 | > 30
CN(C)[C@@H]1C(O)=C(C(N)=O)C(=O)[C@@]2(O)C(O)=C3C(=O)c4c(O)ccc(Cl)c4[C@@H](O)[C@H]3C[C@@H]12 [DEMECLOCYCLINE] | > 10 | > 10 |  | > 10 | > 10 | > 10 | > 30
NS(=O)(=O)c1cc(Cl)c(Cl)c(S(N)(=O)=O)c1 [DICHLORPHENAMIDE] | > 10 | > 10 |  | > 10 | > 10 | > 10 | > 30
O=C(Nc1ccccc1)OCC(CN1CCCCC1)OC(=O)Nc1ccccc1 (stereo unspecified) [DIPERODON] | > 10 | > 10 |  | > 30 | 6.69 | > 10 | > 10
CC1=NN(c2ccccc2)C(=O)C1 [EDARAVONE] |  |  | > 30 |  |  |  | 
C=C1C[C@@H]2[C@H](CC[C@]3(C)C(=O)CC[C@@H]23)[C@@]2(C)C=CC(=O)C=C12 [EXEMESTANE] | > 10 | > 10 |  | > 30 | > 30 | > 10 | > 30

Structure (SMILES) | AC50 [1] [µM] | AC50 [2] [µM] | AC50 [3] [µM] | AC50 (Melanocortin receptor 3) [µM] | AC50 [4] [µM] | AC50 [5] [µM] | AC50 [6] [µM]
O=C1NCC2(CCN(CCc3ccccc3)CC2)O1 [FENSPIRIDE] |  |  | 25.2 |  |  |  | 
CC(C)=CCC1C(=O)N(c2ccccc2)N(c2ccccc2)C1=O [FEPRAZONE] |  |  | > 30 |  |  |  | 
CC(C(O)c1ccc(O)cc1)N1CCC(Cc2ccccc2)CC1 (stereo unspecified) [IFENPRODIL] | 0.89 | > 30 |  | > 30 | 1.2 | 1.3 | > 30
CC(=O)N(CC(O)CO)c1c(I)c(C(=O)NCC(O)CO)c(I)c(C(=O)NCC(O)CO)c1I (stereo unspecified) [IOHEXOL] | > 10 | > 10 |  | > 30 | > 30 | > 10 | > 30
CCC(Cc1c(I)cc(I)c(N)c1I)C(=O)O (stereo unspecified) [IOPANOIC ACID] |  |  | > 30 |  |  |  | 
CN(CCCN1c2ccccc2CCc2ccccc21)CC(=O)c1ccc(Cl)cc1 [LOFEPRAMINE] | 17 |  |  | > 30 | 21 | > 30 | 2.7
CC(=O)O[C@]1(C(C)=O)CC[C@H]2[C@@H]3C[C@H](C)C4=CC(=O)CC[C@]4(C)[C@H]3CC[C@@]21C [MEDROXYPROGESTERONE ACETATE] |  |  | 13.4 | > 30 | > 30 |  | 
CCC1(c2cccc(O)c2)CCCCN(C)C1 (stereo unspecified) [MEPTAZINOL] |  |  | > 30 |  |  |  | 
Cn1cc[nH]c1=S [METHIMAZOLE] |  |  | > 30 |  |  |  | 
CO[C@@]12[C@H](COC(N)=O)C3=C(C(=O)C(C)=C(N)C3=O)N1C[C@@H]1N[C@@H]12 [MITOMYCIN] |  |  | > 30 |  |  |  | 
CN(C/C=C/c1ccccc1)Cc1cccc2ccccc12 [NAFTIFINE] | 4.8 | > 10 |  | > 30 | 17.3 | > 10 | > 30
CC(C)NCC1CCc2cc(CO)c([N+](=O)[O-])cc2N1 (stereo unspecified) [OXAMNIQUINE] | > 10 | > 10 |  | > 10 | > 30 | > 30 | > 30
Nc1ccc(/N=N/c2ccccc2)c(N)n1 [PHENAZOPYRIDINE] | 3.7 | 4.1 | > 30 |  |  |  | 1.91
CN(C)CCCN1c2ccccc2Sc2ccccc21 [PROMAZINE] | 0.82 |  |  | > 30 | > 10 | > 10 | 0.15
O=P(O)(O)C(O)(Cc1cccnc1)P(=O)(O)O [RISEDRONIC ACID] | > 30 |  |  | > 30 | > 30 | > 30 | > 30
O=C1CCC(N2C(=O)c3ccccc3C2=O)C(=O)N1 (stereo unspecified) [THALIDOMIDE] | > 10 |  | > 30 | > 30 | > 10 | > 10 | > 30
CCC1C(C)=NN=C(c2ccc(OC)c(OC)c2)c2cc(OC)c(OC)cc21 (stereo unspecified) [TOFISOPAM] |  |  | > 30 |  |  |  | 
COc1cc(NCc2ccc3nc(N)nc(N)c3c2C)cc(OC)c1OC [TRIMETREXATE] |  |  | > 30 |  |  |  | 
CC(=O)N[C@H]1[C@H]([C@H](O)[C@H](O)CO)OC(C(=O)O)=C[C@@H]1N=C(N)N [ZANAMIVIR] | > 30 | > 30 |  | > 30 | > 30 | > 30 | > 30
